Assay results: patent US6825185B2, “Substituted aryl compounds as novel cyclooxygenase-2 selective inhibitors, compositions and methods of use” (NitroMed, Inc., priority 2000, dated 2004)

Assays:
COX-1 = COX-1 (Homo sapiens, UniProt P23219); test: COX-1 enzyme activity in human whole blood (A23187 stimulated, thromboxane B2 EIA); assay type: cell-based; set-up: Human blood (≈50 mL) from male or female donors who had not received any aspirin or NSAIDs for 14 days; endogenous in cells; host or cells: human whole blood from donors; conditions: test compound at 100 μM
COX-2 = molecular target: T1, COX-2 (Homo sapiens, UniProt P35354); test: Human COX-2 enzyme activity (COX Inhibitor Screening Assay, prostaglandin EIA); assay type: biochemical; set-up: purchased Cayman Chemical; conditions: test compound at 10 μM
T1 sequence (P35354 18-604): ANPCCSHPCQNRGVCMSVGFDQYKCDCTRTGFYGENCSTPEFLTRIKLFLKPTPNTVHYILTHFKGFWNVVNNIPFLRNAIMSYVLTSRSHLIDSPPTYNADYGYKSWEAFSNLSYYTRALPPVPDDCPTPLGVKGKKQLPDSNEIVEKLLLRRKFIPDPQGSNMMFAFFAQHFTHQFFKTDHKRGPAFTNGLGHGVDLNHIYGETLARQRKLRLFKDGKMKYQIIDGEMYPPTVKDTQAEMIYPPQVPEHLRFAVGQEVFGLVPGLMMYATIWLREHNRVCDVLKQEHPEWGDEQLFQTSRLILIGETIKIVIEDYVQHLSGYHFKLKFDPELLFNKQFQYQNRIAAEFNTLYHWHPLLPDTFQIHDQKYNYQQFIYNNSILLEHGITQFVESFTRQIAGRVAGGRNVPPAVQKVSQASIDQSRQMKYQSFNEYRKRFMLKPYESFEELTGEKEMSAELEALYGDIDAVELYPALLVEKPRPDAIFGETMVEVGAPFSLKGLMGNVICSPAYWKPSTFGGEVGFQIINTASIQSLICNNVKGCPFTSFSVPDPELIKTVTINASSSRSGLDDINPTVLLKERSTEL
Procedure: The human COX-1 and COX-2 enzyme activities and the measurement of the prostaglandin products synthesized were performed using the COX Inhibitor Screening Assay (Cayman Chemical, Ann Arbor, Mich.), which also contained the Prostaglandin Screening EIA Kit, used for prostaglandin quantification). The test compounds were dissolved at 50 times the highest final reaction concentration in DMSO or any other suitable solvent as stock solutions. These stock solutions were then diluted in the same solvent. Eight glass test tubes (13×100 mm) were placed in a 25° C. water bath. To each test tube was added 950 μL of reaction buffer (0.1 M Tris-HCl, pH 8.0, containing 5 mM EDTA, and 2 mM phenol), 10 μL of 100 µM heme solution, and 10 μL (5 units) of either human COX-1 or COX-2 enzyme and the resulting mixture was incubated for 2 minutes. Twenty μL of the solvent was added to one tube (100% initial activity or solvent control) and 20 μL of each dilution of the test compound was added to one tube each. Each tube was vortexed immediately after the addition. The enzyme was incubated with the inhibitor for 20 minutes at 25° C. The enzymatic reaction was then initiated by the addition of 10 μL of freshly prepared 10 mM arachidonic acid (neutralized with KOH), vortexed and then incubated for 2 minutes (or, in some cases as indicated, 30 seconds) at 37° C. The reaction was terminated by the addition of 50 μL of 1 M HCl, vortexed and placed at room temperature. One hundred μL of a saturated stannous chloride solution (50 mg/mL of 0.1 M HCl) was added and the reaction mixture was allowed to stand at room temperature for at least 5 minutes.
The prostaglandins (PG) produced in the reactions were assayed, after a 2,000-fold dilution, using the Prostaglandin Screening EIA Kit (Cayman Chemical, Ann Arbor, Mich.). The assay contains an antibody with broad specificity for all the prostaglandin families (PGF, PGE, PGD, and thromboxane B-type) synthesized in the COX-1/COX-2 reactions. The synthesized prostaglandin competes with a PG-tagged acetylcholine esterase tracer for binding to the PG antibody. Binding of synthesized PG lowers the colorimetric development of the Ellman's Reagent (computed as %B/B0). The actual amount of synthesized PG was interpolated from a standard curve using known amounts of supplied prostaglandin E2 (PGE2) (PGE2 concentration vs. %B/B0). The data generated were the mean±standard deviation of triplicate wells in the EIA for a single reaction at a given inhibitor concentration.

Sequence of COX-1 (P23219 24-599): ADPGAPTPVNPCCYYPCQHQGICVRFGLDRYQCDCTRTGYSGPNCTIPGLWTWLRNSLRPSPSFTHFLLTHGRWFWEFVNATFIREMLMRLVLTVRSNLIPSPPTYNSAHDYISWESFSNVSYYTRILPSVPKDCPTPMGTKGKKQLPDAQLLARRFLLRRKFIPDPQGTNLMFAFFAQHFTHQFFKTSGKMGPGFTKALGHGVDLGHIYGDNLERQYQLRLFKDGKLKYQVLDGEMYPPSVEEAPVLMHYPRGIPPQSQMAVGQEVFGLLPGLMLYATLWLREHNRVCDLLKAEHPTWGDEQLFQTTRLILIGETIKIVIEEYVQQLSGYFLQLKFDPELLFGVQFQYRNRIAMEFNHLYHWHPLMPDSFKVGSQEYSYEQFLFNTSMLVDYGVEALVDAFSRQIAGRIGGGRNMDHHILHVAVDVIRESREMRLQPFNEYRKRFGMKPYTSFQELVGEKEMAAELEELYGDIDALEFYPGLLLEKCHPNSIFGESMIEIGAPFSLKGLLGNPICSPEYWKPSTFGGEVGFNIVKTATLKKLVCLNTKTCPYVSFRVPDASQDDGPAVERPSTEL

Row | SMILES | COX-1 Inhibition (% at 100 μM) (COX-1) [%] | COX-2 Inhibition (% at 10 μM) (COX-2) [%]
1 | CS(=O)(=O)c1ccc(-c2cc3c(cc2CC2CCCCC2)OCO3)cc1 [Example 1e, 1-(6-(Cyclohexylmethyl)(2-H-benzo(3,4-d)1,3-dioxolen-5-yl))-4-(methylsulfonyl) benzene] | 40 | 100
2 | CS(=O)(=O)c1ccc(-c2cc3c(cc2C(=O)c2ccccc2)OCO3)cc1 [Example 3d, 6-(4-(Methylsulfonyl)phenyl)(2H-benzo(d)1,3-dioxolan-5-yl) phenyl ketone] | 75 | 90
3 | CS(=O)(=O)c1ccc(-c2cc3c(cc2Cc2cccnc2)OCO3)cc1 [Example 6c, 4-(Methylsulfonyl)-1-(6-(3-pyridylmethyl)(2H-benzo(3,4-d)1,3-dioxolan-5-yl))benzene] | 20 | 65
4 | CS(=O)(=O)c1ccc(-c2cc3c(cc2CN2CCCCC2=O)OCO3)cc1 [Example 9c] | 35 | 90
5 | CS(=O)(=O)c1ccc(-c2cc3c(cc2C=C2CCCC2)OCO3)cc1 [Example 10a, 4-(6-(Cyclopentylidenemethyl)(2H-benzo(3,4-d)1,3-dioxolan-5-yl))-1-(methylsulfonyl)benzene] | 70 | 100
6 | CS(=O)(=O)c1ccc(-c2cc3c(cc2Cc2cc(F)cc(F)c2)OCO3)cc1 [Example 15c, 5-(1-(3′,5′-Difluorophenyl)methyl)-1,2-methylenedioxy-4-(4-methylsulfonylphenyl)benzene] | 75 | 90
